Source: patent publication US6472348B1, “Pyridone derivatives and herbicides” (Kumiai Chemical Industry Co., Ltd., priority 1996, dated 2002)

What was measured:
[1] = tested on: monochoria (Mo); assay: Test Example 1: herbicidal effects by paddy field soil treatment; assay type: in vivo; settings: 100 g of the active ingredient per 10 ares, 21st day after the application, index 0-5 of Table 47;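 note: grade of growth control; 5 = at least 90%; 4 = 70 to 90%; 3 = 50 to 70%; 2 = 30 to 50%; 1 = 10 to 30%; 0 = under 10%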
Procedure, shortened: (§1)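 Flooded paddy-soil pots (3 cm water) sown after puddling/leveling; treatment 100 g a.i./10 ares; greenhouse culture; herbicidal effect rated visually on a scoring scale at 21 d post-application.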

[2] = tested on: barnyardgrass (Ec); assay: as above; assay type: in vivo; settings: 100 g of the active ingredient per 10 ares, 21st day after the application, index 0-5 of Table 47
Procedure, shortened: as §1

[3] = tested on: bulrush (Sc); assay: as above; assay type: in vivo; settings: 100 g of the active ingredient per 10 ares, 21st day after the application, index 0-5 of Table 47;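 note: grade of growth control; 5 = at least 90%; 4 = 70 to 90%; 3 = 50 to 70%; 2 = 30 to 50%; 1 = 10 to 30%; 0 = under 10%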
Procedure, shortened: as §1

[4] = tested on: wheat (Tr); assay: Test Example 9: crop plant selectivity by upland field foliage treatment (wheat), phytotoxicity; settings: dose 1.6 g ai/10a, 14th day after treatment;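 note: grade of crop injury; 5 = at least 90%; 4 = 70 to 90%; 3 = 50 to 70%; 2 = 30 to 50%; 1 = 10 to 30%; 0 = under 10%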
Protocol: (§2) (Test on Crop Plant Selectivity by Upland Field Foliage Treatment)
(§3) In a plastic pot (surface area: 600 cm^2) filled with sand, wheat (Tr), pale smartweed (Po), slender amaranth (Am), common lambsquarters (Ch) and China jute (Ab) were sown and cultured in a green house for 2 weeks. […] The plants were then cultured in a green house, and the evaluation of the herbicidal effects and phytotoxicity was conducted on the 14th day after the treatment in accordance with the standards as identified in Table 47.

[5] = tested on: cotton (Go); assay: Test Example 4: crop plant selectivity by upland field soil treatment (cotton), phytotoxicity; assay type: in vivo; design: scale not given here; settings: dose 6.3 g ai/10 a, evaluated 21st day after application
Protocol: (§4) (Test on Crop Plant Selectivity by Upland Field Soil Treatment)
(§5) In a plastic pot (surface area: 600 cm^2) filled with sand, cotton (Go), Diaitaria ciliaris (Di), green foxtail (Se), pale smartweed (Po), slender amaranth (Am), common lambsquarters (Ch) and China jute (Ab) were sown and covered with soil. […] The plants were then cultured in a green house, and the evaluation of the herbicidal effects and phytotoxicity was conducted on the 21st day after the application in accordance with the standards as identified in Table 47. Symbol—represents “not tested”.

[6] = tested on: pale smartweed (Po); assay: Test Example 3: herbicidal effects by upland field foliage treatment; assay type: in vivo; design: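 grade of growth control; 5 = at least 90%; 4 = 70 to 90%; 3 = 50 to 70%; 2 = 30 to 50%; 1 = 10 to 30%; 0 = under 10%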
Procedure, shortened: (§6)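 Post-emergence upland foliage test. Seedlings grown 2 weeks under glass in pots (120 cm^2) of sand, seed topped with soil; treated on the foliage, kept in greenhouse, then assessed at day 14 using rating standards.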

[7] = tested on: slender amaranth (Am); assay: as above; assay type: in vivo; design: scale not given here
Procedure, shortened: as §6

[8] = tested on: common lambsquarters (Ch); assay: as above; assay type: in vivo; design: scale not given here
Procedure, shortened: as §6

[9] = tested on: barnyardgrass (Ec); assay: as above; assay type: in vivo; design: scale not given here
Procedure, shortened: as §6

[10] = tested on: Diaitaria ciliaris (Di); assay: as above; assay type: in vivo; design: scale not given here
Procedure, shortened: as §6

[11] = tested on: rice flatsedge (Ci); assay: as above; assay type: in vivo; design: scale not given here
Procedure, shortened: as §6

[12] = tested on: pale smartweed (Po); assay: Test Example 2: herbicidal effects by upland field soil treatment; assay type: in vivo; settings: 100 g of the active ingredient per 10 ares, evaluated on the 21st day after application;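 note: grade of growth control; 5 = at least 90%; 4 = 70 to 90%; 3 = 50 to 70%; 2 = 30 to 50%; 1 = 10 to 30%; 0 = under 10%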
Description: (§7) (Test on Herbicidal Effects by Upland Field Soil Treatment)

[13] = tested on: slender amaranth (Am); assay: as above; assay type: in vivo; settings: 100 g of the active ingredient per 10 ares, evaluated on the 21st day after application
Description: as §7

[14] = tested on: common lambsquarters (Ch); assay: as above; assay type: in vivo; settings: 100 g of the active ingredient per 10 ares, evaluated on the 21st day after application
Description: as §7

[15] = tested on: barnyardgrass (Ec); assay: as above; assay type: in vivo; settings: 100 g of the active ingredient per 10 ares, evaluated on the 21st day after application
Description: as §7

[16] = tested on: Digitaria ciliaris (Di); assay: as above; assay type: in vivo; settings: 100 g of the active ingredient per 10 ares, evaluated on the 21st day after application
Description: as §7

[17] = tested on: rice flatsedge (Ci); assay: as above; assay type: in vivo; settings: 100 g of the active ingredient per 10 ares, evaluated on the 21st day after application
Description: as §7

[18] = tested on: pale smartweed (Po); assay: Test Example 6: crop plant selectivity by upland field soil treatment (soybean), herbicidal effects; assay type: in vivo; design: scale not given here; settings: dose 6.3 g ai/10a, 21st day after application
Protocol: as §4
(§8) In a plastic pot (surface area: 600 cm^2) filled with sand, soybean (Gl), Diaitaria ciliaris (Di), green foxtail (Se), Johnsongrass (So), pale smartweed (Po), slender amaranth (Am), common lambsquarters (Ch) and China jute (Ab) were sown and covered with soil. […] The plants were then cultured in a green house, and the evaluation of the herbicidal effects and phytotoxicity was conducted on the 21st day after the application in accordance with the standards as identified in Table 47. Symbol—represents “not tested”.

[19] = tested on: slender amaranth (Am); assay: as above; assay type: in vivo; design: scale not given here; settings: dose 6.3 g ai/10a, 21st day after application
Protocol: as §4, §8

[20] = tested on: common lambsquarters (Ch); assay: as above; assay type: in vivo; design: scale not given here; settings: dose 6.3 g ai/10a, 21st day after application
Protocol: as §4, §8

[21] = tested on: green foxtail (Se); assay: as above; assay type: in vivo; design: scale not given here; settings: dose 6.3 g ai/10a, 21st day after application
Protocol: as §4, §8

[22] = tested on: China jute (Ab); assay: as above; assay type: in vivo; design: scale not given here; settings: dose 6.3 g ai/10a, 21st day after application
Protocol: as §4, §8

[23] = tested on: soybean (Gl); assay: Test Example 6: crop plant selectivity by upland field soil treatment (soybean), phytotoxicity; assay type: in vivo; design: scale not given here; settings: dose 6.3 g ai/10a, 21st day after application
Protocol: as §4, §8

[24] = tested on: pale smartweed (Po); assay: Test Example 5: crop plant selectivity by upland field soil treatment (wheat), herbicidal effects; assay type: in vivo; design: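 grade of growth control; 5 = at least 90%; 4 = 70 to 90%; 3 = 50 to 70%; 2 = 30 to 50%; 1 = 10 to 30%; 0 = under 10%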; settings: dose 6.3 g ai/10a, 21st day after application
Protocol: as §4
(§9) In a plastic pot (surface area: 600 cm^2) filled with sand, wheat (Tr), Diaitaria ciliaris (Di), green foxtail (Se), pale smartweed (Po), slender amaranth (Am), common lambsquarters (Ch) and China jute (Ab) were sown and covered with soil. […] The plants were then cultured in a green house, and the evaluation of the herbicidal effects and phytotoxicity was conducted on the 21st day after the application in accordance with the standards as identified in Table 47. Symbol—represents “not tested”.

[25] = tested on: slender amaranth (Am); assay: as above; assay type: in vivo; design: scale not given here; settings: dose 6.3 g ai/10a, 21st day after application
Protocol: as §4, §9

[26] = tested on: common lambsquarters (Ch); assay: as above; assay type: in vivo; design: scale not given here; settings: dose 6.3 g ai/10a, 21st day after application
Protocol: as §4, §9

[27] = tested on: green foxtail (Se); assay: as above; assay type: in vivo; design: scale not given here; settings: dose 6.3 g ai/10a, 21st day after application
Protocol: as §4, §9

[28] = tested on: China jute (Ab); assay: as above; assay type: in vivo; design: scale not given here; settings: dose 6.3 g ai/10a, 21st day after application
Protocol: as §4, §9

[29] = tested on: pale smartweed (Po); assay: Test Example 4: crop plant selectivity by upland field soil treatment (cotton), herbicidal effects; assay type: in vivo; design: scale not given here; settings: dose 6.3 g ai/10 a, evaluated 21st day after application
Protocol: as §4, §5

[30] = tested on: slender amaranth (Am); assay: as above; assay type: in vivo; design: scale not given here; settings: dose 6.3 g ai/10 a, evaluated 21st day after application
Protocol: as §4, §5

[31] = tested on: common lambsquarters (Ch); assay: as above; assay type: in vivo; design: scale not given here; settings: dose 6.3 g ai/10 a, evaluated 21st day after application
Protocol: as §4, §5

[32] = tested on: green foxtail (Se); assay: as above; assay type: in vivo; design: scale not given here; settings: dose 6.3 g ai/10 a, evaluated 21st day after application
Protocol: as §4, §5

[33] = tested on: China jute (Ab); assay: as above; assay type: in vivo; design: scale not given here; settings: dose 6.3 g ai/10 a, evaluated 21st day after application
Protocol: as §4, §5

[34] = tested on: pale smartweed (Po); assay: Test Example 9: crop plant selectivity by upland field foliage treatment (wheat), herbicidal effects; assay type: in vivo; design: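 grade of growth control; 5 = at least 90%; 4 = 70 to 90%; 3 = 50 to 70%; 2 = 30 to 50%; 1 = 10 to 30%; 0 = under 10%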; settings: dose 1.6 g ai/10a, 14th day after treatment
Protocol: as §2, §3

[35] = tested on: slender amaranth (Am); assay: as above; assay type: in vivo; design: scale not given here; settings: dose 1.6 g ai/10a, 14th day after treatment
Protocol: as §2, §3

[36] = tested on: common lambsquarters (Ch); assay: as above; assay type: in vivo; design: scale not given here; settings: dose 1.6 g ai/10a, 14th day after treatment
Protocol: as §2, §3

[37] = tested on: China jute (Ab); assay: as above; assay type: in vivo; design: scale not given here; settings: dose 1.6 g ai/10a, 14th day after treatment
Protocol: as §2, §3

[38] = tested on: wheat (Tr); assay: Test Example 5: crop plant selectivity by upland field soil treatment (wheat), phytotoxicity; assay type: in vivo; design: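 grade of crop injury; 5 = at least 90%; 4 = 70 to 90%; 3 = 50 to 70%; 2 = 30 to 50%; 1 = 10 to 30%; 0 = under 10%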; settings: dose 6.3 g ai/10a, 21st day after application
Protocol: as §4, §9

[39] = tested on: pale smartweed (Po); assay: Test Example 7: crop plant selectivity by upland field soil treatment (corn), herbicidal effects; assay type: in vivo; design: scale not given here; settings: dose 6.3 g ai/10a, 21st day after application
Protocol: as §4
(§10) In a plastic pot (surface area: 600 cm^2) filled with sand, corn (Ze), green foxtail (Se), pale smartweed (Po), slender amaranth (Am), common lambsquarters (Ch) and China jute (Ab) were sown and covered with soil. […] The plants were then cultured in a green house, and the evaluation of the herbicidal effects and phytotoxicity was conducted on the 21st day after the application in accordance with the standards as identified in Table 47.

[40] = tested on: slender amaranth (Am); assay: as above; assay type: in vivo; design: scale not given here; settings: dose 6.3 g ai/10a, 21st day after application
Protocol: as §4, §10

[41] = tested on: common lambsquarters (Ch); assay: as above; assay type: in vivo; design: scale not given here; settings: dose 6.3 g ai/10a, 21st day after application
Protocol: as §4, §10

[42] = tested on: green foxtail (Se); assay: as above; assay type: in vivo; design: scale not given here; settings: dose 6.3 g ai/10a, 21st day after application
Protocol: as §4, §10

[43] = tested on: China jute (Ab); assay: as above; assay type: in vivo; design: scale not given here; settings: dose 6.3 g ai/10a, 21st day after application
Protocol: as §4, §10

[44] = tested on: corn (Ze); assay: Test Example 7: crop plant selectivity by upland field soil treatment (corn), phytotoxicity; assay type: in vivo; design: scale not given here; settings: dose 6.3 g ai/10a, 21st day after application
Protocol: as §4, §10

[45] = 100 g active ingredient per 10 ares, evaluated 14th day after treatment
[46] = 100 g of the active ingredient per 10 ares, evaluated on the 14th day after treatment

Compound: CCN1C(=O)COc2cc(F)c(-c3ccc(C(F)(F)F)n(C)c3=O)cc21 [Compound 2-15]
- Herbicidal effects Mo [1]: 5
- Herbicidal effects Ec [2]: 5
- Herbicidal effects Sc [3]: 5
- Phytotoxicity Tr [4]: 2
- Phytotoxicity Go [5]: 0
- Herbicidal effects Po [6, 45]: 5
- Herbicidal effects Am [7, 45]: 5
- Herbicidal effects Ch [8, 45]: 5
- Herbicidal effects Ec [9, 45]: 5
- Herbicidal effects Di [10, 45]: 5
- Herbicidal effects Ci [11, 45]: 5
- Herbicidal effects Po [12]: 5
- Herbicidal effects Am [13]: 5
- Herbicidal effects Ch [14]: 5
- Herbicidal effects Ec [15]: 5
- Herbicidal effects Di [16]: 5
- Herbicidal effects Ci [17]: 5
- Herbicidal effects Po [18]: 5
- Herbicidal effects Am [19]: 5
- Herbicidal effects Ch [20]: 5
- Herbicidal effects Se [21]: 5
- Herbicidal effects Ab [22]: 5
- Phytotoxicity Gl [23]: 1
- Herbicidal effects Po [24]: 5
- Herbicidal effects Am [25]: 5
- Herbicidal effects Ch [26]: 5
- Herbicidal effects Se [27]: 5
- Herbicidal effects Ab [28]: 5
- Herbicidal effects Po [29]: 5
- Herbicidal effects Am [30]: 5
- Herbicidal effects Ch [31]: 5
- Herbicidal effects Se [32]: 5
- Herbicidal effects Ab [33]: 5
- Herbicidal effects Po [34]: 5
- Herbicidal effects Am [35]: 5
- Herbicidal effects Ch [36]: 5
- Herbicidal effects Ab [37]: 5
- Phytotoxicity Tr [38]: 1

Compound: Cn1c(C(F)(F)F)ccc(-c2cc(OCCF)c(Cl)cc2F)c1=O [1-172]
- Herbicidal effects Mo [1]: 5
- Herbicidal effects Ec [2]: 5
- Herbicidal effects Sc [3]: 5
- Phytotoxicity Go [5]: 1
- Herbicidal effects Po [6, 46]: 5
- Herbicidal effects Am [7, 46]: 5
- Herbicidal effects Ch [8, 46]: 5
- Herbicidal effects Ec [9, 46]: 5
- Herbicidal effects Di [10, 46]: 5
- Herbicidal effects Ci [11, 46]: 5
- Herbicidal effects Po [12]: 5
- Herbicidal effects Am [13]: 5
- Herbicidal effects Ch [14]: 5
- Herbicidal effects Ec [15]: 5
- Herbicidal effects Di [16]: 5
- Herbicidal effects Ci [17]: 5
- Herbicidal effects Po [39]: 5
- Herbicidal effects Am [40]: 5
- Herbicidal effects Ch [41]: 5
- Herbicidal effects Se [42]: 5
- Herbicidal effects Ab [43]: 5
- Phytotoxicity Ze [44]: 2
- Herbicidal effects Po [29]: 5
- Herbicidal effects Am [30]: 5
- Herbicidal effects Ch [31]: 5
- Herbicidal effects Se [32]: 5
- Herbicidal effects Ab [33]: 5
